From PubChem BioAssay (NCI)
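GI50 marks 50% less growth. TGI is the concentration that stops growth completely.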

Experiments:
Assay in all cases: DTP human tumour cell line panel, 384-well format
[1] = system: 786-0 renal
[2] = system: A498 renal
[3] = system: A549 NSCLC
[4] = system: ACHN renal
[5] = system: BT-549 breast
[6] = system: CAKI-1 renal
[7] = system: CCRF-CEM leukemia
[8] = system: COLO 205 colon
[9] = system: DU-145 prostate
[10] = system: EKVX NSCLC
[11] = system: HCC-2998 colon
[12] = system: HCT-15 colon
[13] = system: HL-60(TB) leukemia
[14] = system: HOP-62 NSCLC
[15] = system: HOP-92 NSCLC
[16] = system: HS 578T breast
[17] = system: HT29 colon
[18] = system: IGROV1 ovarian
[19] = system: K-562 leukemia
[20] = system: KM12 colon
[21] = system: LOX IMVI melanoma
[22] = system: M14 melanoma
[23] = system: MALME-3M melanoma
[24] = system: MCF7 breast
[25] = system: MDA-MB-231 breast
[26] = system: MDA-MB-435 melanoma
[27] = system: MDA-MB-468 breast
[28] = system: MOLT-4 leukemia
[29] = system: NCI-H226 lung
[30] = system: NCI-H23 lung
[31] = system: NCI-H322M lung
[32] = system: NCI-H460 NSCLC
[33] = system: NCI-H522 lung
[34] = system: NCI/ADR-RES ovarian
[35] = system: OVCAR-3 ovarian
[36] = system: OVCAR-4 ovarian
[37] = system: OVCAR-5 ovarian
[38] = system: OVCAR-8 ovarian
[39] = system: PC-3 prostate
[40] = system: RPMI-8226 leukemia
[41] = system: RXF 393 renal
[42] = system: SF-268 CNS
[43] = system: SF-295 CNS
[44] = system: SF-539 CNS
[45] = system: SK-MEL-28 melanoma
[46] = system: SK-MEL-5 melanoma
[47] = system: SK-OV-3 ovarian
[48] = system: SN12C renal
[49] = system: SNB-19 CNS
[50] = system: SNB-75 CNS
[51] = system: SR leukemia
[52] = system: SW-620 colon
[53] = system: T-47D breast
[54] = system: TK-10 renal
[55] = system: UACC-257 melanoma
[56] = system: UACC-62 melanoma
[57] = system: UO-31 renal

With `Cc1nc(-c2cnc(NC(C)C)n(C)c2=O)ccc1Oc1ccnc(-c2cnn(C)c2)c1` the GI50 [1] was 18.3 µM, the TGI [1] was 61.4 µM and the GI50 [2] was 13.2 µM. It also gave a TGI [2] of over 100 µM, a GI50 [3] of 23.3 µM and a TGI [3] of over 100 µM. The GI50 [4] was 27.2 µM, the TGI [4] was over 100 µM and the GI50 [5] was 14 µM. For the same compound, the TGI [5] was 81.1 µM, the GI50 [6] was 25.7 µM and the TGI [6] was over 100 µM. The GI50 [7] was 4.56 µM, the TGI [7] was 14.9 µM and the GI50 [8] was 9.84 µM. It also gave a TGI [8] of 22.8 µM, a GI50 [9] of 30.1 µM and a TGI [9] of over 100 µM. It also gave a GI50 [10] of 18.1 µM, a TGI [10] of over 100 µM and a GI50 [11] of 14.2 µM. It also gave a TGI [11] of 36.9 µM, a GI50 [12] of 4.68 µM and a TGI [12] of 19.4 µM. It also gave a GI50 [13] of 2.63 µM, a TGI [13] of 6.27 µM and a GI50 [14] of 14.4 µM. It also gave a TGI [14] of 39.6 µM, a GI50 [15] of 19.5 µM and a TGI [15] of 68.6 µM. The GI50 [16] was 13.6 µM, the TGI [16] was 29.2 µM and the GI50 [17] was 7.73 µM. It also gave a TGI [17] of 34.7 µM, a GI50 [18] of 13.7 µM and a TGI [18] of 44.3 µM. The GI50 [19] was 1.26 µM, the TGI [19] was 2.68 µM and the GI50 [20] was 4.67 µM. For the same compound, the TGI [20] was 33.9 µM, the GI50 [21] was 17.9 µM and the TGI [21] was 71.6 µM. For the same compound, the GI50 [22] was 7.99 µM, the TGI [22] was 27.3 µM and the GI50 [23] was 7.48 µM. It also gave a TGI [23] of 36.5 µM, a GI50 [24] of 9.45 µM and a TGI [24] of over 100 µM. The GI50 [25] was 16.4 µM, the TGI [25] was over 100 µM and the GI50 [26] was 2.39 µM. It also gave a TGI [26] of 5.7 µM, a GI50 [27] of 2.73 µM and a TGI [27] of 6.33 µM. The GI50 [28] was 1.87 µM, the TGI [28] was 3.56 µM and the GI50 [29] was 19 µM. The TGI [29] was 90.7 µM, the GI50 [30] was 12.4 µM and the TGI [30] was 36 µM. The GI50 [31] was 23.5 µM, the TGI [31] was 73.4 µM and the GI50 [32] was 15.4 µM. It also gave a TGI [32] of 37.4 µM, a GI50 [33] of 4.45 µM and a TGI [33] of 15.5 µM. For the same compound, the GI50 [34] was 5.77 µM, the TGI [34] was 19.3 µM and the GI50 [35] was 8.64 µM. For the same compound, the TGI [35] was 28 µM, the GI50 [36] was 13.6 µM and the TGI [36] was 50.8 µM. For the same compound, the GI50 [37] was 17.2 µM, the TGI [37] was 34.9 µM and the GI50 [38] was 14.6 µM. The TGI [38] was 28.4 µM, the GI50 [39] was 21 µM and the TGI [39] was 60.3 µM. For the same compound, the GI50 [40] was 4.9 µM, the TGI [40] was 21.7 µM and the GI50 [41] was 12.4 µM. The TGI [41] was 34.2 µM, the GI50 [42] was 19.8 µM and the TGI [42] was 64.1 µM. It also gave a GI50 [43] of 15.6 µM, a TGI [43] of 62.7 µM and a GI50 [44] of 12.4 µM. The TGI [44] was 25.2 µM, the GI50 [45] was 14.5 µM and the TGI [45] was 69.5 µM. It also gave a GI50 [46] of 4.46 µM, a TGI [46] of 16.2 µM and a GI50 [47] of 11.5 µM. The TGI [47] was 25.5 µM, the GI50 [48] was 14.5 µM and the TGI [48] was 28.3 µM. The GI50 [49] was 21.3 µM, the TGI [49] was 68.6 µM and the GI50 [50] was 10.9 µM. For the same compound, the TGI [50] was 26.8 µM, the GI50 [51] was 1.5 µM and the TGI [51] was 2.99 µM. The GI50 [52] was 5.53 µM, the TGI [52] was 17.9 µM and the GI50 [53] was 5.73 µM. The TGI [53] was 28.7 µM, the GI50 [54] was 27.1 µM and the TGI [54] was over 100 µM. The GI50 [55] was 17.2 µM, the TGI [55] was 57.1 µM and the GI50 [56] was 6.42 µM. For the same compound, the TGI [56] was 24.6 µM, the GI50 [57] was 97.3 µM and the TGI [57] was over 100 µM.
